In patent US12479817B2, “Substituted 3-(1-oxoisoindolin-2-yl)piperidine-2,6-dione derivatives and uses thereof” (Novartis AG, priority 2019, dated 2025):

Experiments:
[1] = biological target: T1, IKZF2 (Homo sapiens, UniProt Q96SW2+Q9UKS7); assay: Prolabel quantification of IKZF2 protein levels in 293GT cells; type: cell-based; details: Pro-label assay in 293GT cells; for IKZF2 Degradation (%): % degradation is at 10 μM; for AC50: read-out: IKZF2 Degradation AC50
T1 construct: expressed in transfected cells
T1 sequence (Q9UKS7 whole entry): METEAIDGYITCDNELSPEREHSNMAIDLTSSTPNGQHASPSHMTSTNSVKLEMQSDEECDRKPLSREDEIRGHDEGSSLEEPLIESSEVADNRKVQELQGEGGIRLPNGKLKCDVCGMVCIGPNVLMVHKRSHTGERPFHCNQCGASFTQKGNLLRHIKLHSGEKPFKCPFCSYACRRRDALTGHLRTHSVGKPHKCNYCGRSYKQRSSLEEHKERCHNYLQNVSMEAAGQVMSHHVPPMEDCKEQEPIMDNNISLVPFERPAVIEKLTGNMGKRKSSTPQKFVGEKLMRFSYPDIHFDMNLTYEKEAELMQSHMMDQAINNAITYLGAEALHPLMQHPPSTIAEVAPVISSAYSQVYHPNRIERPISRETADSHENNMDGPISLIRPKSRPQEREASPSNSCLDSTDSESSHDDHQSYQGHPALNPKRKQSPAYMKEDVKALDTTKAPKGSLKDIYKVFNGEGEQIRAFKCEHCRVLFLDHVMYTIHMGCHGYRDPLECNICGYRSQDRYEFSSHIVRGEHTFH
T1 sequence (Q96SW2 whole entry): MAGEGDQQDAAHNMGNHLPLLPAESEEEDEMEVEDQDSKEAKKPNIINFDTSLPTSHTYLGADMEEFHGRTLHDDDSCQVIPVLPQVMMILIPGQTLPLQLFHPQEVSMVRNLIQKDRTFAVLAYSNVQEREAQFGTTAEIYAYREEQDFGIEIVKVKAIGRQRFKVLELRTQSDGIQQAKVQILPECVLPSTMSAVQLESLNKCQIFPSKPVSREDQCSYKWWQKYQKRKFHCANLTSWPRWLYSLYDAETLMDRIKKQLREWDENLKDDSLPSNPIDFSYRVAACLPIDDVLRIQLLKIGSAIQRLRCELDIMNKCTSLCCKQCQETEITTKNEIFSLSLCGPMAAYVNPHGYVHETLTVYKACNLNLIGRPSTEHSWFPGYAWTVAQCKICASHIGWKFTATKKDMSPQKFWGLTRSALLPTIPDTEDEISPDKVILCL
T1 sequence (Q16531 whole entry partner): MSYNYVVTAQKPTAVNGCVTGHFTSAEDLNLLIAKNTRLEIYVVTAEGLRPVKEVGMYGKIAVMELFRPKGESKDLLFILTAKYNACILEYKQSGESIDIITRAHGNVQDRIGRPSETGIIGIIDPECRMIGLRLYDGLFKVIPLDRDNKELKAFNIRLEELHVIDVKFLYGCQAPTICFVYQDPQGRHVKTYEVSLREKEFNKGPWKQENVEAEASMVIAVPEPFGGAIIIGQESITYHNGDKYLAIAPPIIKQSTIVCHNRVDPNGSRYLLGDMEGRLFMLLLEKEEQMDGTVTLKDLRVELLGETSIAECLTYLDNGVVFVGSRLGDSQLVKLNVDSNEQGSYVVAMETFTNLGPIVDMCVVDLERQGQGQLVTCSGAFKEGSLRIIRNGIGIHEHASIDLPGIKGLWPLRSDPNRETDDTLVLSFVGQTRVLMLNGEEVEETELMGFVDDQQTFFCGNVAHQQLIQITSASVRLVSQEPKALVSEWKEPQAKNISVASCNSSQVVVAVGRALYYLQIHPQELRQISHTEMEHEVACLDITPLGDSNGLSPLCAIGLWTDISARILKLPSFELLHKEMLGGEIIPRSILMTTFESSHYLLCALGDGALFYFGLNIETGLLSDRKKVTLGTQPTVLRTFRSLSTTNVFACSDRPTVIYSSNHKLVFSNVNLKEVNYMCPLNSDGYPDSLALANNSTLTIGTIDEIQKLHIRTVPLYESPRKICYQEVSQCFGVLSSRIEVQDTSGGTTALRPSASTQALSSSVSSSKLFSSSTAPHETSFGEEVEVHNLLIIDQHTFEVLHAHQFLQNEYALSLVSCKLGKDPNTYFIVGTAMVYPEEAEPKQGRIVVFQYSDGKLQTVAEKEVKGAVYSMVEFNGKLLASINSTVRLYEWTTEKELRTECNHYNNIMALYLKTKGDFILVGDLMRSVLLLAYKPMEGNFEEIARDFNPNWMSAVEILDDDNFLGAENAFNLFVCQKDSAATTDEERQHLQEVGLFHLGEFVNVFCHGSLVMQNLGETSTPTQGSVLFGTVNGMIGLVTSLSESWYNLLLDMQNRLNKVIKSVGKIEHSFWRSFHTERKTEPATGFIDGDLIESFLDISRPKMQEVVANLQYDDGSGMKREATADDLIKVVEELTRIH
Procedure: (§1) The Prolabel system from DiscoverX was used to develop high-throughput and quantitative assays to measure changes in IKZF1, IKZF2 and GSPT1 protein levels in response to compounds. The prolabel tag was derived from the alpha fragment of beta galactosidase and has the following protein sequence: mssnslavvlqadwenpgvtqlnrlaahppfaswrnseeartdrpsqqlislnge. The complementary fragment of beta-galactosidase (from DiscoverX), is added to the prolabel tag to form an active beta galactosidase enzyme whose activity can be precisely measured. In this way, the levels of a fusion protein with the prolabel tag can be quantified in cell lysates.
(§2) Lentiviral vectors, based on the Invitrogen pLenti6.2/V5 DEST backbone, were constructed that placed the prolabel tag upstream of IKZF1, IKZF2 or GSPT1 and expressed the fusion protein from a CMV promoter.
(§3) To ensure moderate and consistent expression of the prolabel fusion proteins across all cells in the population, stable cell lines were constructed from cells expressing a single copy of the construct. Lentivirus packaged with the constructs was made using the Virapower kit from Invitrogen.
(§4) The levels of prolabel tagged fusion proteins in compound treated cell lines were measured as follows:
(§5) Day 1, Cells were diluted to 1.0×10^6 cells/ml in normal growth medium. 17.5 μL, of cells were plated in each well of a solid white 384 well plate. Plates were incubated overnight in a 37° C. tissue culture incubator.
(§6) Day 2, Serial dilutions of compounds were made in 384 well plates from 10 mM stocks. 15 μL, of DMSO was added to each well of a 384 well plate. In the first column, 15 μL of stock compound was added. The solution was mixed and 15 μL was transferred to the next column. This was repeated until 20 two-fold dilutions were prepared. 2.5 μL, of diluted compounds were transferred into 60 μL of cell culture medium in another 384 well plate, and mixed well. 2.5 μL of this mixture was added to the plated cells. The final DMSO concentration was 0.5% and the highest concentration of compound was 50 μM. Plates were incubated overnight (e.g., about 14 h, 18 h, or 24 h) in a 37° C. tissue culture incubator.
(§7) Day 3, Plates were removed from the incubator and allowed to equilibrate at rt for 30 minutes. Prolabel substrate (DiscoverX PathHunter Prolabel Detection Kit, User manual: 93-0180) was added as described by the manufacturers protocols. Plates were incubated at rt for three hours and luminescence was read using an Envision reader (Perkin Elmer) Data was analyzed and visualized using the Spotfire software package.

[2] = biological target: T2, IKZF1 (Homo sapiens, UniProt Q13422+Q96SW2); assay: Prolabel quantification of IKZF1 protein levels in 293GT cells; type: cell-based; details: Pro-label assay in 293GT cells; for AC50: read-out: IKZF1 Degradation AC50; for IKZF1 Degradation (%): % degradation is at 10 μM
T2 construct: expressed in transfected cells
T2 sequence (Q13422 whole entry): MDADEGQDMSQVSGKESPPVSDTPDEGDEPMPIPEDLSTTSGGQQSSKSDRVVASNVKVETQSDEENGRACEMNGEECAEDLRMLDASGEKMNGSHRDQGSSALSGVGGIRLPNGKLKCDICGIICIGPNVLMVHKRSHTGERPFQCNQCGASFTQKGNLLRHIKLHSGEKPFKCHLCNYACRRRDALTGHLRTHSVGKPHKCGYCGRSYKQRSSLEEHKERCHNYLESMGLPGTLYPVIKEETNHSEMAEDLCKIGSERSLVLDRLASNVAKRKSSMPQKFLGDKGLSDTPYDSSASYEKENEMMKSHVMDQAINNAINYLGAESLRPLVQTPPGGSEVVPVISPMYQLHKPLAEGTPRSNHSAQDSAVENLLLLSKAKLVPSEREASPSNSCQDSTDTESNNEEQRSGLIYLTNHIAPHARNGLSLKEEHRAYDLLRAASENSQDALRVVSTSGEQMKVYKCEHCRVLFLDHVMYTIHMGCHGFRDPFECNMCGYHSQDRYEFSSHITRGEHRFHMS
T2 sequence (Q96SW2 whole entry): as the sequence (Q96SW2 whole entry) above
T2 sequence (Q16531 whole entry partner): as the sequence (Q16531 whole entry partner) above
Procedure: as §1, §2, §3, §4, §5, §6, §7

Row | Structure (SMILES) | IKZF2 Degradation (%) [1] [%] | AC50 [1] [nM] | AC50 [2] [nM] | IKZF1 Degradation (%) [2] [%]
1 | O=C1CCC(N2Cc3cc(C4CCN(Cc5ccccc5)CC4)ncc3C2=O)C(=O)N1 (stereo not drawn) [Compound I-2, 3-(6-(1-benzylpiperidin-4-yl)-3-oxo-1,3-dihydro-2H-pyrrolo[3,4-c]pyridin-2-yl)piperidine-2,6-dione] | – | > 30000 | > 30000 | –
2 | O=C1CCC(N2Cc3cc(C4CCN(Cc5ccncc5)CC4)c(F)cc3C2=O)C(=O)N1 (stereo not drawn) [Compound I-16, 3-(6-fluoro-1-oxo-5-(1-(pyridin-4-ylmethyl)piperidin-4-yl)isoindolin-2-yl)piperidine-2,6-dione] | 42 | 560 | 7600 | 22
3 | CO[C@H]1CC[C@H](CN2CCC(c3ccc4c(c3Cl)CN(C3CCC(=O)NC3=O)C4=O)CC2)CC1 (stereo partly drawn) [Compound I-17, 3-(4-chloro-5-(1-(((1r,4r)-4-methoxycyclohexyl)methyl)piperidin-4-yl)-1-oxoisoindolin-2-yl)piperidine-2,6-dione] | 30 | 75 | 130 | 40
4 | COc1c(C2=CCN(Cc3ccccc3)CC2)ccc2c1CN(C1CCC(=O)NC1=O)C2=O (stereo not drawn) [Compound I-20, 3-(5-(1-benzyl-1,2,3,6-tetrahydropyridin-4-yl)-4-methoxy-1-oxoisoindolin-2-yl)piperidine-2,6-dione] | 42 | 200 | 66 | 40
5 | Nc1cccc2c1C(=O)N(C1CCC(=O)NC1=O)C2=O (stereo not drawn) [Pomalidomide, 4-amino-2-(2,6-dioxopiperidin-3-yl)isoindoline-1,3-dione, reference compound] | – | – | – | 80

Continued, values first:

Row | IKZF2 Degradation (%) [1] [%] | AC50 [1] [nM] | AC50 [2] [nM] | IKZF1 Degradation (%) [2] [%] | Structure (SMILES)
6 | 33 | 260 | > 30000 | – | O=C1CCC(N2Cc3nc(C4CCN(Cc5ccccc5)CC4)ccc3C2=O)C(=O)N1 (stereo not drawn) [Compound I-1, 3-(2-(1-benzylpiperidin-4-yl)-5-oxo-5,7-dihydro-6H-pyrrolo[3,4-b]pyridin-6-yl)piperidine-2,6-dione]
7 | 72 | 6 | > 30000 | – | O=C1CCC(N2Cc3c(ccc(C4CCN(Cc5ccccc5)CC4)c3F)C2=O)C(=O)N1 (stereo not drawn) [Compound I-3, 3-(5-(1-benzylpiperidin-4-yl)-4-fluoro-1-oxoisoindolin-2-yl)piperidine-2,6-dione]
8 | 59 | 110 | > 30000 | – | Cc1c(C2CCN(Cc3ccccc3)CC2)ccc2c1CN(C1CCC(=O)NC1=O)C2=O (stereo not drawn) [Compound I-5, 3-(5-(1-benzylpiperidin-4-yl)-4-methyl-1-oxoisoindolin-2-yl)piperidine-2,6-dione]
